Key:
[1] = tested on: mucins of the fibrillar reticulum; assay: glycopeptide analysis of bronchial mucus from orally treated patients; assay type: in vivo; details: comparative test, 70 mg/kg/die
Procedure: The analysis of the glycopeptides of the bronchial mucus obtained by hydrolysis with papaine (24 hours at 37°C, pH 6.5) followed by pronasis (24 hours at 37°C at pH 7.3) and fractionation by electrophoresis on agarose at pH 8.6 and finally chromatografy on DEAE -Sephadex A/25 column has shown an average increasing of about 100% of the sialoglycopeptides (hydrophil- ics) with a reduction higher than 60% of the weakly acid glycopeptides and neutral mucins (hydrophobics) followed by lowering of the viscosity.

[2] = tested on: bronchial ipersecretion induced with S02; assay: bronchial hypersecretion induced with SO2 in rats; assay type: in vivo; details: oral, two weeks, 0.5 g/kg/die (esters: equivalent to 0.5 g/kg/die of free acid); 300 ppm SO2 two hours a day, total 90 hours; untreated animals 80%
Source text: Under the same experimental conditions in tests carried out with Carbocysteine at the same dose (0.5 g/kg/die) the percentage of the non protected animals was 25%.

[3] = tested on: intrabronchial desquamation and the reactive mucousa iperplasye; assay: CCl nebulization in rats, bronchial desquamation and mucosal hyperplasia; assay type: in vivo; details: oral 0.5 g/kg/die (esters: equivalent to 0.5 g/kg/die of the acid); nebulization 10 days, 5 nebulizations for 2 minutes a day
in vivo = details: ip, i.p. administration in the mouse, buffered with sodium bicarbonate at pH 6, read-out: DL50 (the source's name)

Structure (SMILES) | average increasing of the sialoglycopeptides [1] [%] | decreasing of the glycopeptides and mucins [1] [%] | bronchial obstruction, percentage of treated (non protected) animals [2] [%] | hindering of the intrabronchial desquamation and the reactive mucousa iperplasye [3] [%] | LD50 (in vivo) [mg/kg]
N[C@@H](CSCC(=O)O)C(=O)O [Carbocysteine] | ≤ 75 | ≤ 45 | 25 | ≤ 40 | 5180
O=C(O)CNC(=O)CCSCC(=O)O [beta-(S-carboxvmethvl)-propionvl-qlvcine] | – | – | – | – | 5500
CC(SCC(=O)O)C(=O)NCC(=O)O (stereo not shown) [S-carboxymethyl-propionyl-glycine] | – | – | – | – | 5420

Source: EP0015544A2, “Derivatives of the mercaptopropionamido-acetic acid, process for the preparation thereof and compositions” (ZAMBON S.p.A., priority 1979, dated 1980)
